Results published in patent publication US20210179578A1, “OX1 ANTAGONISTS” (Heptares Therapeutics Limited, priority 2017, published 2021).
Like-named read-outs stand apart in the source and are kept apart here.

Columns and labels:
[1] = molecular target: T1, human OX1 receptor (Homo sapiens, UniProt O43613); assay: IPone accumulation assay, CHO cells expressing OX1 (antagonism of orexin A); type: cell-based; conditions: CHO human OX1, orexin A EC80 challenge (~20 nM)
T1 sequence (O43613 1-425): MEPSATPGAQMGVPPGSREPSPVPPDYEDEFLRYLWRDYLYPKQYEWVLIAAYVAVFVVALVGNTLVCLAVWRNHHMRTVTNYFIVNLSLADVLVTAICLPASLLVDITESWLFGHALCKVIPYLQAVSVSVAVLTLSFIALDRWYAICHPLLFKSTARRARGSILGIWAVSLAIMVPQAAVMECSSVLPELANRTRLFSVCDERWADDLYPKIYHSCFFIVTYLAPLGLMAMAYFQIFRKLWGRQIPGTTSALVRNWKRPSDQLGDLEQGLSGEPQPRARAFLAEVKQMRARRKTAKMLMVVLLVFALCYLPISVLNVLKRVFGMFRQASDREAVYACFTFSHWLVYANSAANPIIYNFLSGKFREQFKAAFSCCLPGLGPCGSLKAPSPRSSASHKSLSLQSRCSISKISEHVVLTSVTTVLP
Method: Generation of CHO stable cell lines expressing the human OX1R and OX2R. Stable cell lines for the human OX1R and OX2R receptors were generated through the transfection of CHO cells using the transfection reagent Genejuice (Novagen number 70967) and cDNA coding for either the human OX1R or OX2R. Cells were cultured in Sigma Nutrient Mixture F-12 Ham media (catalog number N6658) supplemented with 10% heat-inactivated FBS. Forty-eight hours after transfection, cells were harvested and placed under geneticin selection by culturing in Sigma Nutrient Mixture F-12 Ham media supplemented with 10% heat-inactivated FBS and geneticin (ThermoFisher Catalog number: 10131035). Selection of the final stable clone for each receptor was made on the basis of receptor expression, assay signal to noise and robustness though increasing passage. Selected clones for the human OX1R and OX2R were then frozen down into liquid nitrogen using Cell Freezing Medium-DMSO (Sigma-Aldrich catalog number: C6164). IPone accumulation assay. A CHO cell line stably expressing either human OX1 or OX2 receptor was used with the IPone HTRF assay kit (CisBio: Part #62[…]) to measure receptor activation. The assay was optimised to measure the ability (potency; fpKb) of antagonists to reduce agonist (orexin A)-induced inositol phosphate turnover. Briefly, cells were plated onto half area 96-well white walled plates at a density of 12,500 cells/well. Sixteen hours post-plating cell growth media was replaced with antagonist concentration-response curve diluted in stimulation buffer (supplied with the kit). Cells were incubated in a humidified incubator (37° C.) for 30 min before an EC80 challenge concentration ( 20 nM (OX1) and 40 nM (OX2)) of orexin A (Tocris catalogue number 1455). After 30 min stimulation in a humidified incubator (37° C.) the assay was terminated by the addition of detection mixture as per manufacturer's instructions. The concentration of compound which reduced orexin-A stimulated turnover of inositol phosphates by 50% (IC50) was calculated by fitting to a four parameter sigmoidal dose response curve. The IC50 values were converted to fpKB values using the orexin A pEC50 value estimated on each plate as well as the challenge concentration interpolated from the orexin A control curve.

[2] = molecular target: T2, human OX2 receptor (Homo sapiens, UniProt O43614); assay: IPone accumulation assay, CHO cells expressing OX2 (antagonism of orexin A); type: cell-based; conditions: CHO human OX2, orexin A EC80 challenge (40 nM), read-out: fpKb average OX2 (converted)
T2 sequence (O43614 1-444): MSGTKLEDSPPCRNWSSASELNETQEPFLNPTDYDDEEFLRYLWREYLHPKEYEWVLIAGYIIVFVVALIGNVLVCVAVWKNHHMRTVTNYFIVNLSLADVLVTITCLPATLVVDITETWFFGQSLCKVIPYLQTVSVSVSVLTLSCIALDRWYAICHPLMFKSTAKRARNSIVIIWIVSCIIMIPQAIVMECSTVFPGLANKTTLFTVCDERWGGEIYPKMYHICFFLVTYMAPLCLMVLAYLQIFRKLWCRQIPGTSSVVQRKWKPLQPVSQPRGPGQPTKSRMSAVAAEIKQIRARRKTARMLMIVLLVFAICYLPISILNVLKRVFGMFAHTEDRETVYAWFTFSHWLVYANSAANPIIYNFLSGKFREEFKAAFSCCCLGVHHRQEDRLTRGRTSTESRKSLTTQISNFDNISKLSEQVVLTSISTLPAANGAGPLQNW
Method: Generation of CHO stable cell lines expressing the human OX1R and OX2R. Stable cell lines for the human OX1R and OX2R receptors were generated through the transfection of CHO cells using the transfection reagent Genejuice (Novagen number 70967) and cDNA coding for either the human OX1R or OX2R. Cells were cultured in Sigma Nutrient Mixture F-12 Ham media (catalog number N6658) supplemented with 10% heat-inactivated FBS. Forty-eight hours after transfection, cells were harvested and placed under geneticin selection by culturing in Sigma Nutrient Mixture F-12 Ham media supplemented with 10% heat-inactivated FBS and geneticin (ThermoFisher Catalog number: 10131035). Selection of the final stable clone for each receptor was made on the basis of receptor expression, assay signal to noise and robustness though increasing passage. Selected clones for the human OX1R and OX2R were then frozen down into liquid nitrogen using Cell Freezing Medium-DMSO (Sigma-Aldrich catalog number: C6164).
IPone accumulation assay. A CHO cell line stably expressing either human OX1 or OX2 receptor was used with the IPone HTRF assay kit (CisBio: Part #62IPAPEJ) to measure receptor activation. The assay was optimised to measure the ability (potency; fpKb) of antagonists to reduce agonist (orexin A)-induced inositol phosphate turnover. Briefly, cells were plated onto half area 96-well white walled plates at a density of 12,500 cells/well. Sixteen hours post-plating cell growth media was replaced with antagonist concentration-response curve diluted in stimulation buffer (supplied with the kit). Cells were incubated in a humidified incubator (37° C.) for 30 min before an EC80 challenge concentration (˜20 nM (OX1) and 40 nM (OX2)) of orexin A (Tocris catalogue number 1455). After 30 min stimulation in a humidified incubator (37° C.) the assay was terminated by the addition of detection mixture as per manufacturer's instructions. The concentration of compound which reduced orexin-A stimulated turnover of inositol phosphates by 50% (IC50) was calculated by fitting to a four parameter sigmoidal dose response curve. The IC50 values were converted to fpKB values using the orexin A pEC50 value estimated on each plate as well as the challenge concentration interpolated from the orexin A control curve.

[3] = IPone accumulation, read-out: fpKb average OX1 (converted)

Row | Structure (SMILES) | Kb [1, 3] [nM] | Kb [2] [nM] | Kb ([1]; fpKb average OX1, IPone accumulation) [nM]
1 | COc1ncc(N2CCc3c(F)cccc3N(Cc3c(F)cc(Cl)cc3F)C2=O)cc1C(C)(F)F [Example 9, 1-(4-chloro-2,6-difluorobenzyl)-3-[5-(1,1-difluoroethyl)-6-methoxypyridin-3-yl]-6-fluoro-1,3,4,5-tetrahydro-2H-1,3-benzodiazepin-2-one] | 25.1 | > 3160 | –
2 | COc1ncc(N2CCc3c(F)cccc3N(Cc3ccc(Br)cc3F)C2=O)cc1C(C)(F)F [Example 10, 1-(4-bromo-2-fluorobenzyl)-3-[5-(1,1-difluoroethyl)-6-methoxypyridin-3-yl]-6-fluoro-1,3,4,5-tetrahydro-2H-1,3-benzodiazepin-2-one] | 25.1 | > 2510 | –
3 | COc1ncc(N2CCc3c(F)cccc3N(Cc3c(F)cc(Br)cc3F)C2=O)cc1S(C)(=O)=O [Example 14, 1-(4-bromo-2,6-difluorobenzyl)-6-fluoro-3-[6-methoxy-5-(methylsulfonyl)pyridin-3-yl]-1,3,4,5-tetrahydro-2H-1,3-benzodiazepin-2-one] | 79.4 | > 794 | –
4 | COc1cc(F)c(CN2C(=O)N(c3cnc(OC)c(S(C)(=O)=O)c3)CCc3c(F)cccc32)c(F)c1F [Example 15, 6-fluoro-3-[6-methoxy-5-(methylsulfonyl)pyridin-3-yl]-1-(2,3,6-trifluoro-4-methoxybenzyl)-1,3,4,5-tetrahydro-2H-1,3-benzodiazepin-2-one] | 126 | > 3160 | –
5 | COc1cc(F)c(CN2C(=O)N(c3cnc(OC)c(S(C)(=O)=O)c3)CCc3c(F)cccc32)c(F)c1 [Example 16, 1-(2,6-difluoro-4-methoxybenzyl)-6-fluoro-3-[6-methoxy-5-(methylsulfonyl)pyridin-3-yl]-1,3,4,5-tetrahydro-2H-1,3-benzodiazepin-2-one] | 15.8 | > 3980 | –
6 | COc1ncc(N2CCc3c(F)cccc3N(Cc3c(C)cc(Br)cc3F)C2=O)cc1S(C)(=O)=O [Example 17, 1-(4-bromo-2-fluoro-6-methylbenzyl)-6-fluoro-3-[6-methoxy-5-(methylsulfonyl)pyridin-3-yl]-1,3,4,5-tetrahydro-2H-1,3-benzodiazepin-2-one] | 10 | > 2510 | –
7 | COc1ncc(N2CCc3c(F)cccc3N(Cc3c(C)cc(F)cc3F)C2=O)cc1S(C)(=O)=O [Example 18, 1-(2,4-difluoro-6-methylbenzyl)-6-fluoro-3-[6-methoxy-5-(methylsulfonyl)pyridin-3-yl]-1,3,4,5-tetrahydro-2H-1,3-benzodiazepin-2-one] | 10 | > 3160 | –
8 | CSc1cc(N2CCc3c(F)cccc3N(Cc3c(F)cc(Br)cc3F)C2=O)ccc1C [Example 26, 1-(4-bromo-2,6-difluorobenzyl)-6-fluoro-3-[4-methyl-3-(methylsulfanyl)phenyl]-1,3,4,5-tetrahydro-2H-1,3-benzodiazepin-2-one] | – | > 794 | 50.1
9 | Cc1ccc(N2CCc3c(F)cccc3N(Cc3c(F)cc(Br)cc3F)C2=O)cc1S(C)(=O)=O [Example 27, 1-(4-bromo-2,6-difluorobenzyl)-6-fluoro-3-[4-methyl-3-(methylsulfonyl)phenyl]-1,3,4,5-tetrahydro-2H-1,3-benzodiazepin-2-one] | 126 | > 3160 | –
10 | CCCc1cc(F)c(CN2C(=O)N(c3ccc(C)c(S(C)(=O)=O)c3)CCc3c(F)cccc32)c(F)c1 [Example 28, 1-(2,6-difluoro-4-propylbenzyl)-6-fluoro-3-[4-methyl-3-(methylsulfonyl)phenyl]-1,3,4,5-tetrahydro-2H-1,3-benzodiazepin-2-one] | 79.4 | > 3980 | –
11 | Cc1cc(C)c(S(C)(=O)=O)cc1N1CCc2ccccc2N(Cc2c(F)cc(Br)cc2F)C1=O [Example 29, 1-(4-bromo-2,6-difluorobenzyl)-3-[2,4-dimethyl-5-(methylsulfonyl)phenyl]-1,3,4,5-tetrahydro-2H-1,3-benzodiazepin-2-one] | 39.8 | 398 | –

Continued, in another order:

Row | Kb [1, 3] [nM] | Kb [2] [nM] | Structure (SMILES) | Kb ([1]; fpKb average OX1, IPone accumulation) [nM]
12 | 7.94 | > 3980 | COCc1cc(F)c(CN2C(=O)N(c3cnc(OC)c(C(C)(F)F)c3)CCc3c(F)cccc32)c(F)c1 [Example 7, 3-[5-(1,1-difluoroethyl)-6-methoxypyridin-3-yl]-1-[2,6-difluoro-4-(methoxymethyl)benzyl]-6-fluoro-1,3,4,5-tetrahydro-2H-1,3-benzodiazepin-2-one] | –
13 | 3.16 | > 316 | COc1cc(F)c(CN2C(=O)N(c3cnc(OC)c(C(C)(F)F)c3)CCc3c(F)cccc32)c(F)c1 [Example 8, 3-[5-(1,1-difluoroethyl)-6-methoxypyridin-3-yl]-1-(2,6-difluoro-4-methoxybenzyl)-6-fluoro-1,3,4,5-tetrahydro-2H-1,3-benzodiazepin-2-one] | –
14 | 50.1 | > 1580 | COc1nc(OC)c(C(C)(F)F)cc1N1CCc2c(F)cccc2N(Cc2c(F)cc(Br)cc2F)C1=O [Example 23, 1-(4-bromo-2,6-difluorobenzyl)-3-[5-(1,1-difluoroethyl)-2,6-dimethoxypyridin-3-yl]-6-fluoro-1,3,4,5-tetrahydro-2H-1,3-benzodiazepin-2-one] | –
15 | 63.1 | > 3160 | COCc1cc(F)c(CN2C(=O)N(c3cc(C(C)(F)F)c(OC)nc3OC)CCc3c(F)cccc32)c(F)c1 [Example 24, 3-[5-(1,1-difluoroethyl)-2,6-dimethoxypyridin-3-yl]-1-[2,6-difluoro-4-(methoxymethyl)benzyl]-6-fluoro-1,3,4,5-tetrahydro-2H-1,3-benzodiazepin-2-one] | –
16 | 10 | > 3980 | COc1cc(F)c(CN2C(=O)N(c3cc(S(C)(=O)=O)c(OC)nc3OC)CCc3c(F)cccc32)c(F)c1 [Example 25, 1-(2,6-difluoro-4-methoxybenzyl)-3-[2,6-dimethoxy-5-(methylsulfonyl)pyridin-3-yl]-6-fluoro-1,3,4,5-tetrahydro-2H-1,3-benzodiazepin-2-one] | –
